Reference: ChEMBL document CHEMBL1629443 (J Med Chem, 2010)

Assays:
[1] = target: Histone deacetylase; assay: Inhibition of HDAC in human HeLa cell nuclear extracts; assay type: cell-based
[2] = Inhibition of HDAC assessed as histone H3K'9+14 acetylation levels by cell based histone H3 hyperacetylation assay
[3] = target: Histone deacetylase 1 (Homo sapiens, UniProt Q13547); assay: Inhibition of human recombinant HDAC1 expressed in HEK293 cells; assay type: cell-based
[4] = target: T1, Protein deacetylase HDAC6 (Homo sapiens, UniProt Q9UBN7); assay: Inhibition of human recombinant HDAC6 expressed in HEK293 cells; assay type: cell-based
T1 sequence (Q9UBN7 whole entry): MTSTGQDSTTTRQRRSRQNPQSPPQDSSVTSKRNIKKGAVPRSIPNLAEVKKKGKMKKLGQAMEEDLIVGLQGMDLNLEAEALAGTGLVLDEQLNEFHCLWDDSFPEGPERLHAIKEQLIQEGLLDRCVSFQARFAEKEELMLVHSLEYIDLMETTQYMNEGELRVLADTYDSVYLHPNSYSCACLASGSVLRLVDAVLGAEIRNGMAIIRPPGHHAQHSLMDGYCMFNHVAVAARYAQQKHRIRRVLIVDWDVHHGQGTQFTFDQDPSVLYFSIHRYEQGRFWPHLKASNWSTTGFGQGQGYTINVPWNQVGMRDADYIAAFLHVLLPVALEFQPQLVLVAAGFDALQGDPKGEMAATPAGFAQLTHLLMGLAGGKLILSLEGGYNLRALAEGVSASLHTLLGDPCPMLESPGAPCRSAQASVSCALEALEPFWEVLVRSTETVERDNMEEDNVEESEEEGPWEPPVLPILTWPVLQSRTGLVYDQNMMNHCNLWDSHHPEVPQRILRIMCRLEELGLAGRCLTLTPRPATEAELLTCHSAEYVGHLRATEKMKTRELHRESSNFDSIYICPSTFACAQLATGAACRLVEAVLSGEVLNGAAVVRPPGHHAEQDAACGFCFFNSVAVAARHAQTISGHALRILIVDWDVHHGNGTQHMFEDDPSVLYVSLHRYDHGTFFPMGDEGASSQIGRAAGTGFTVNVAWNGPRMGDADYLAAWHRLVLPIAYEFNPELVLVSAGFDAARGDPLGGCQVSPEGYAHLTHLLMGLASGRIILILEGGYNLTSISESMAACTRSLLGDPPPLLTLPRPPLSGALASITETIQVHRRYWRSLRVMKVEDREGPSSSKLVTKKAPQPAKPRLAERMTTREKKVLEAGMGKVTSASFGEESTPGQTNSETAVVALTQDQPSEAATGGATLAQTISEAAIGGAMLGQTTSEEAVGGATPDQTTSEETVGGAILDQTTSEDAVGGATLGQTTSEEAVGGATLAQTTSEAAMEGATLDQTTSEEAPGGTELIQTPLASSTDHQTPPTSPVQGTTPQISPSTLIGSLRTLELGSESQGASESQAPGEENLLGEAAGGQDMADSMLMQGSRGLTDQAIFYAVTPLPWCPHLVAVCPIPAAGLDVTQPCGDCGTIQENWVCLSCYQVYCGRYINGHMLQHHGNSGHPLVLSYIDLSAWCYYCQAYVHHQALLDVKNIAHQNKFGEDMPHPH

[5] = target: Histone deacetylase 3 (Homo sapiens, UniProt O15379); assay: Inhibition of Flag tagged human recombinant HDAC3 expressed in Sf21 cells coexpressing SMRT DAD domain
Histone deacetylase 3, sequence (O15379 whole entry, the tested form may be a part): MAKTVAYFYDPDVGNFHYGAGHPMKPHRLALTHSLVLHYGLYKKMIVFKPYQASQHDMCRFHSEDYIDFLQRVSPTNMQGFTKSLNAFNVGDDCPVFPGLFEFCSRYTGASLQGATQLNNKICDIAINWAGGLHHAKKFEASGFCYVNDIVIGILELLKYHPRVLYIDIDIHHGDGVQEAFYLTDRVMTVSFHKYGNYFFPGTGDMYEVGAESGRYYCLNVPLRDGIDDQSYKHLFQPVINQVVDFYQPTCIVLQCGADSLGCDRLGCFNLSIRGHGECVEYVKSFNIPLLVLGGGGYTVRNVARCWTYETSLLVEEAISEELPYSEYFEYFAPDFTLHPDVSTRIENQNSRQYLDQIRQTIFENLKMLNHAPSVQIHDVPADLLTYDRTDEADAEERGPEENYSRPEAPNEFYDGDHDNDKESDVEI

[6] = target: T2, Histone deacetylase 8 (Homo sapiens, UniProt Q9BY41); assay: Inhibition of Flag tagged human recombinant HDAC8 expressed in Sf21 cells
T2 sequence (Q9BY41 whole entry): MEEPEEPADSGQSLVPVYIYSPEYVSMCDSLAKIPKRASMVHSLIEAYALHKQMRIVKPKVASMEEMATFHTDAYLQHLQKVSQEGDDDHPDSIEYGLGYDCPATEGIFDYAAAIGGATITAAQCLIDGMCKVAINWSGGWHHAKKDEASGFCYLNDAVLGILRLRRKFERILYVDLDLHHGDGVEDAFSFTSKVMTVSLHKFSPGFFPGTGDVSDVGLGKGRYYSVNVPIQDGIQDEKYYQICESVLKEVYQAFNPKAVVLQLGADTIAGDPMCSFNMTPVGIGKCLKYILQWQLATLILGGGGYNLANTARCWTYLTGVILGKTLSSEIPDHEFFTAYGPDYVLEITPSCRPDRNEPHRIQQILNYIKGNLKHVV

[7] = target: T3, Epidermal growth factor receptor (Homo sapiens, UniProt P00533); assay: Inhibition of EGFR by flash plate based radioactive enzyme assay
T3 sequence (P00533 whole entry): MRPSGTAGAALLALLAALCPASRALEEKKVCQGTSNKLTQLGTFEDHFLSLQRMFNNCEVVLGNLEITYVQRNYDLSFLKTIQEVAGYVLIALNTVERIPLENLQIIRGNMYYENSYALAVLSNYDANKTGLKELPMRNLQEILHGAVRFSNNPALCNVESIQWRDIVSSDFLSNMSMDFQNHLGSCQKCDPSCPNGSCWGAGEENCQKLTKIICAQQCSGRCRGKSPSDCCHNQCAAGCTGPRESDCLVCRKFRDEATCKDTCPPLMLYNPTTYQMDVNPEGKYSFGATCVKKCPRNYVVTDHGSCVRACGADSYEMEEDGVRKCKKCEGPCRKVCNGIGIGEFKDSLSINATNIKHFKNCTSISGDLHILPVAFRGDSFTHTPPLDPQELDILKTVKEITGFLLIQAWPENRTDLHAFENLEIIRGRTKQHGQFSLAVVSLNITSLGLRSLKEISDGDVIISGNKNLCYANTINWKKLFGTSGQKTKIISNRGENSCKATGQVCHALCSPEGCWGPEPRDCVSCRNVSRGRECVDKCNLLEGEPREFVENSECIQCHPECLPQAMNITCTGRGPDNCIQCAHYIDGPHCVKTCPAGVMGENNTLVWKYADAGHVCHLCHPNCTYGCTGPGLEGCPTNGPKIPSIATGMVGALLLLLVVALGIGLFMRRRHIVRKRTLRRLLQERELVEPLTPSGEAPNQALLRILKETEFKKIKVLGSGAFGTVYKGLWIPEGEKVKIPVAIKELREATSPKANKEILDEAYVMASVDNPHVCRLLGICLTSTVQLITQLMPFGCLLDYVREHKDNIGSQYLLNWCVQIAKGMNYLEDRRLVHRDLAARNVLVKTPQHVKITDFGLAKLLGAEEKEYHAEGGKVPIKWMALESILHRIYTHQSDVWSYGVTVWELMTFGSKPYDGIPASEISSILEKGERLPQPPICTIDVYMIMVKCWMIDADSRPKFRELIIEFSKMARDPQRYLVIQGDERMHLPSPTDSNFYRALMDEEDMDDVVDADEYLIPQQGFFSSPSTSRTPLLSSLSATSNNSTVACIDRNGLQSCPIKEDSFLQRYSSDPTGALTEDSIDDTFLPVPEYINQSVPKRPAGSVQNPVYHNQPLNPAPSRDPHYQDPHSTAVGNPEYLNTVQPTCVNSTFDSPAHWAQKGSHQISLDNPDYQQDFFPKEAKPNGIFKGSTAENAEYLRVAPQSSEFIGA

[8] = target: Receptor tyrosine-protein kinase erbB-2 (Homo sapiens, UniProt P04626); assay: Inhibition of HER2 by flash plate based radioactive enzyme assay
[9] = target: Platelet-derived growth factor receptor beta (Homo sapiens, UniProt P09619); assay: Inhibition of PDGFRbeta by flash plate based radioactive enzyme assay
Platelet-derived growth factor receptor beta, sequence (P09619 whole entry): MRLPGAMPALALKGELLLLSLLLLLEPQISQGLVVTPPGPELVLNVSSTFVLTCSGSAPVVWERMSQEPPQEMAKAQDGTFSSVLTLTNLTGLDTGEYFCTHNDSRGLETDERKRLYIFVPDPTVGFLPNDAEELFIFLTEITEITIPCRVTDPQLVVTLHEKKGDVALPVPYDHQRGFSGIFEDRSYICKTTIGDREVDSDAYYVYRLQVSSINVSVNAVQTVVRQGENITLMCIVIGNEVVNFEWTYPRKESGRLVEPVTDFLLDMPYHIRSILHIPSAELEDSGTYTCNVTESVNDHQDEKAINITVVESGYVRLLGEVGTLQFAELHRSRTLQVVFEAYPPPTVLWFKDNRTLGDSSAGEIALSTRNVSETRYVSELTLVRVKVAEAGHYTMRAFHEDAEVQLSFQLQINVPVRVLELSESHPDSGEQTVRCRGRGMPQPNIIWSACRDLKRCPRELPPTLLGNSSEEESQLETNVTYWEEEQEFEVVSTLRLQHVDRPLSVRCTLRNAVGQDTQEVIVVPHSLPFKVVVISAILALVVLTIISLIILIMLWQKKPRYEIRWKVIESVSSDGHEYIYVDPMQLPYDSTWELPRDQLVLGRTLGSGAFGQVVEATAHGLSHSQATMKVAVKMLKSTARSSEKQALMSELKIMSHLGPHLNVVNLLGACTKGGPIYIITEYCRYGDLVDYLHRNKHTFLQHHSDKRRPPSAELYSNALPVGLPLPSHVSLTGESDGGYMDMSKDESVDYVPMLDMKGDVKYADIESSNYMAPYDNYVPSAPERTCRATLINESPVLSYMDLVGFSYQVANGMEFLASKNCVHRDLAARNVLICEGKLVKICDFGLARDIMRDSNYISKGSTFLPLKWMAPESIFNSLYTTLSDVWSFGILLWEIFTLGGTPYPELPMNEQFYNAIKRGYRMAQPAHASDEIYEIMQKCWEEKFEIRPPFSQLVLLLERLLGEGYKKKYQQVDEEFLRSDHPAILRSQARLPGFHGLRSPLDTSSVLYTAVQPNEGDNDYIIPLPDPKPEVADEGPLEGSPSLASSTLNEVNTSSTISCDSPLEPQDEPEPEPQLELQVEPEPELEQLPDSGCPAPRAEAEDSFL

[10] = target: Insulin receptor (Homo sapiens, UniProt P06213); assay: Inhibition of INSR by flash plate based radioactive enzyme assay
Insulin receptor, sequence (P06213 28-758 limits assumed): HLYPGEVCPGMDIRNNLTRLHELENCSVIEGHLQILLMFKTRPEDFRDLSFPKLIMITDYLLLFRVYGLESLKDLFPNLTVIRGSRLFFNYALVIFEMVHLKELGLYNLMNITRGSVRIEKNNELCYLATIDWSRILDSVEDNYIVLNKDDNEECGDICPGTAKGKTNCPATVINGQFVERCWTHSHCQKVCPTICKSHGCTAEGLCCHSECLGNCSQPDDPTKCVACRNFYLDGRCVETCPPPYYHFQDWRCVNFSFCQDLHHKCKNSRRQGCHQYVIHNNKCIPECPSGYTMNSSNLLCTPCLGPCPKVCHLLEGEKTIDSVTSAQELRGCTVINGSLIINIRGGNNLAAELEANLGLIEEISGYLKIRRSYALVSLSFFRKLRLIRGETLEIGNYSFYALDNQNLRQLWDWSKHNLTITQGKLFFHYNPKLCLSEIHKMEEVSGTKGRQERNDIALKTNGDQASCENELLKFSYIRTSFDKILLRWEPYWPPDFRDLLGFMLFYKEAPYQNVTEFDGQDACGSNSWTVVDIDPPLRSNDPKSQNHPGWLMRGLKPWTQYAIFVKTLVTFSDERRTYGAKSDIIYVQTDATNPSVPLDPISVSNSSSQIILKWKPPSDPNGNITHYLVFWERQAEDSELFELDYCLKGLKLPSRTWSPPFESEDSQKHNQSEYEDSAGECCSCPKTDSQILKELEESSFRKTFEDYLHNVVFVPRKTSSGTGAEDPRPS
Insulin receptor, sequence (P06213 763-1382 limits assumed): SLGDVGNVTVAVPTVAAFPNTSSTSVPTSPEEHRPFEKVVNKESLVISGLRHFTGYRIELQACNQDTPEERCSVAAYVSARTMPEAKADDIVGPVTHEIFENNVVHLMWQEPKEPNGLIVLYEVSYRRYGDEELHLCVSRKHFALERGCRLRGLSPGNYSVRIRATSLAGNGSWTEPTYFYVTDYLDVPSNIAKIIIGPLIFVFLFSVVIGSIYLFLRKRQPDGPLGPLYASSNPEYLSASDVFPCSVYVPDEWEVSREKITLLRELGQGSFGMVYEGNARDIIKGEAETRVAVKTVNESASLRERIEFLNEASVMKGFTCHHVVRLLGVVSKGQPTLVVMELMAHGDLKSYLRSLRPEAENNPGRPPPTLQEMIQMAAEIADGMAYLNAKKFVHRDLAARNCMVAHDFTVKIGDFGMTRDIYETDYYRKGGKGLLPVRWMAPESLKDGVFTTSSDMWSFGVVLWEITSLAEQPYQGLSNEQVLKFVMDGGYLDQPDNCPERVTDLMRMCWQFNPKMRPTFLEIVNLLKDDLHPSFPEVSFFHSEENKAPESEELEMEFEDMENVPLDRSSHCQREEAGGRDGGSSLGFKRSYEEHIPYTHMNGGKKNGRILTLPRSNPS

[11] = target: Tyrosine-protein kinase ABL1 (Homo sapiens, UniProt P00519); assay: Inhibition of ABL1 by flash plate based radioactive enzyme assay
[12] = target: Cyclin-dependent kinase 2 (Homo sapiens, UniProt P24941); assay: Inhibition of CDK2 by flash plate based radioactive enzyme assay
[13] = Inhibition of PKA by flash plate based radioactive enzyme assay
[14] = target: Serine/threonine-protein kinase PLK1 (Homo sapiens, UniProt P53350); assay: Inhibition of PLK1 by flash plate based radioactive enzyme assay
[15] = tested on: A549; assay: Cytotoxicity against human A549 cells overexpressing HDAC by resazurin dye reduction assay
[16] = tested on: HeLa; assay: Cytotoxicity against human HeLa cells overexpressing HDAC by resazurin dye reduction assay
[17] = tested on: A-431; assay: Cytotoxicity against human A431 cells overexpressing EGFR by resazurin dye reduction assay
[18] = tested on: CAL-27; assay: Cytotoxicity against human CAL27 cells overexpressing EGFR by resazurin dye reduction assay
[19] = tested on: SK-BR-3; assay: Cytotoxicity against human SKBR3 cells overexpressing HER2 by resazurin dye reduction assay
[20] = tested on: SK-OV-3; assay: Cytotoxicity against human SKOV3 cells overexpressing HER2 by resazurin dye reduction assay; assay type: functional, cell-based
[21] = target: T3, Epidermal growth factor receptor; assay: Inhibition of EGF-induced EGFR phosphorylation in human CAL27 cells overexpressing EGFR after 16 hrs by Western blot; assay type: cell-based, CAL-27

Histone deacetylase 1, sequence (Q13547 whole entry): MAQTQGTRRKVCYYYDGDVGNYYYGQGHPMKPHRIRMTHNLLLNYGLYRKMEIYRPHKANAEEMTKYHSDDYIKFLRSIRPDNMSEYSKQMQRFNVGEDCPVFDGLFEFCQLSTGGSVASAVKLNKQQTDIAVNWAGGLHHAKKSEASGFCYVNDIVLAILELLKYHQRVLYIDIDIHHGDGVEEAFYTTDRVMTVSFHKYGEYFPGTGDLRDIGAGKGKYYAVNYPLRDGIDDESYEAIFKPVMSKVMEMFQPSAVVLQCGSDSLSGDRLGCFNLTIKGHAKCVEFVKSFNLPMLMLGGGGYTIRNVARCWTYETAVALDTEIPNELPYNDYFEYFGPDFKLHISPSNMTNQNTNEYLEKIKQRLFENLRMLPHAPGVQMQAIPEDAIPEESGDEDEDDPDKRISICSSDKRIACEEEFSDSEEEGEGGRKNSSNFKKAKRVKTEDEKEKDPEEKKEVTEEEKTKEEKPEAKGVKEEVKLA

| Structure (SMILES) | IC50 [1] [µM] | EC50 [2] [µM] | IC50 [3] [µM] | IC50 [4] [µM] | IC50 [5] [µM] | IC50 [6] [µM] | IC50 [7] [µM] | IC50 [8] [µM] | IC50 [9] [µM] | IC50 [10] [µM] | IC50 [11] [µM] | IC50 [12] [µM] | IC50 [13] [µM] | IC50 [14] [µM] | IC50 [15] [µM] | IC50 [16] [µM] | IC50 [17] [µM] | IC50 [18] [µM] | IC50 [19] [µM] | IC50 [20] [µM] | other results |
| --- | --- | --- | --- | --- | --- | --- | --- | --- | --- | --- | --- | --- | --- | --- | --- | --- | --- | --- | --- | --- | --- |
| Nc1ccccc1NC(=O)c1ccc(-c2ccc3ncnc(Nc4ccc(OCc5cccc(F)c5)c(Cl)c4)c3c2)s1 | > 10 | > 100 | > 50 | > 10 | > 32 | > 32 | 0.0028 | 0.0049 | 2.3 | 2.5 | 6 | 2.1 | > 100 | 5.6 | 9.1 | 3.7 | 2.4 | 0.71 | 0.62 | 3.9 | – |
| O=C(NO)c1ccc(-c2ccc3ncnc(Nc4ccc(OCc5cccc(F)c5)c(Cl)c4)c3c2)o1 | – | > 100 | > 50 | – | > 32 | 7.7 | 0.0039 | 0.002 | 1 | 1.4 | 1.7 | 0.46 | 85 | 2 | > 16 | – | > 5 | 0.2 | 0.27 | 15 | – |
| O=C(NO)c1ccc(-c2ccc3ncnc(Nc4ccc(OCc5cccc(F)c5)c(Cl)c4)c3c2)s1 | 0.43 | > 100 | 0.94 | 0.05 | 0.56 | 0.98 | 0.0022 | 0.0035 | 1.8 | 1.7 | 1.7 | 0.2 | > 100 | – | 3.4 | – | 1.9 | 0.65 | 0.42 | 3.1 | – |
| Nc1ccccc1NC(=O)/C=C/c1ccc(-c2ccc3ncnc(Nc4ccc(OCc5cccc(F)c5)c(Cl)c4)c3c2)o1 | > 32 | – | > 100 | > 32 | > 32 | > 32 | 0.026 | 0.0087 | 3.9 | 5.5 | 4.9 | 1.9 | > 100 | 8.5 | 18 | 6.5 | 5.3 | 3.6 | 0.26 | 22 | – |
| Nc1ccccc1NC(=O)/C=C/c1ccc(-c2ccc3ncnc(Nc4ccc(OCc5cccc(F)c5)c(Cl)c4)c3c2)cc1 | > 32 | > 100 | > 100 | > 32 | > 32 | > 32 | 0.029 | 0.015 | 2.7 | 3 | 4.9 | 1.2 | > 100 | 6.2 | 15 | 3.1 | 3.6 | 4 | 17 | 16 | – |
| Nc1ccccc1NC(=O)CCc1ccc(-c2ccc3ncnc(Nc4ccc(OCc5cccc(F)c5)c(Cl)c4)c3c2)cc1 | > 32 | – | > 32 | > 32 | > 32 | > 32 | 0.015 | 0.0047 | 4.7 | 7.1 | 6.9 | 1.4 | > 100 | 27 | 22 | 8.3 | 8.6 | 0.2 | 4.4 | 13 | – |
| CS(=O)(=O)CCNCc1ccc(-c2ccc3ncnc(Nc4ccc(OCc5cccc(F)c5)c(Cl)c4)c3c2)o1 [LAPATINIB] | – | > 30 | – | > 10 | > 10 | > 10 | – | – | – | – | – | – | > 100 | – | – | 5.9 | – | 0.007 | 0.002 | 0.003 | – |
| Nc1ccccc1NC(=O)c1ccc(-c2ccc3ncnc(Nc4ccc(OCc5cccc(F)c5)c(Cl)c4)c3c2)o1 | > 100 | > 100 | > 50 | > 10 | > 32 | > 32 | 0.0029 | 0.0057 | 4 | – | 4.5 | 15 | > 100 | 3.9 | ≥ 16 | 8 | > 5 | 0.33 | – | > 50 | – |
| O=C(/C=C/c1ccc(-c2ccc3ncnc(Nc4ccc(OCc5cccc(F)c5)c(Cl)c4)c3c2)o1)NO | 0.63 | 3.65 | 0.61 | 0.23 | 6.3 | 11 | 0.0025 | 0.0041 | 3.3 | 7.34 | 7.7 | 0.44 | 120 | 12 | 3.9 | 3.2 | 1.9 | 0.82 | 0.51 | 2.1 | IC50 [21]: < 0.032 µM |
| Nc1ccccc1NC(=O)/C=C/c1cccc(-c2ccc3ncnc(Nc4ccc(OCc5cccc(F)c5)c(Cl)c4)c3c2)c1 | > 32 | ≥ 20 | > 100 | > 32 | > 32 | > 32 | 0.049 | 0.014 | 2.5 | 2.8 | 2.9 | 0.85 | > 100 | 5.5 | 27 | 8.4 | 12 | > 16 | 50 | 36 | – |
| O=C(/C=C/c1ccc(-c2ccc3ncnc(Nc4ccc(OCc5cccc(F)c5)c(Cl)c4)c3c2)cc1)NO | > 32 | > 10 | 0.65 | 0.23 | > 32 | 31 | 0.018 | 0.012 | 2.3 | 3.7 | 4.9 | 0.85 | > 100 | 9.1 | 1.1 | 0.92 | 0.51 | 0.28 | 0.33 | 1.2 | – |
